# Experimental data: patent US20160312309A1 (Millennium Pharmaceuticals, Inc., priority 2008, published 2016)
# Key:
# [1] = test system: relapsed multiple myeloma; assay: Response in pharmacogenomic portion of the studies; type: in vivo, human; conditions: for CR, number of patients / IE, number of patients / MR, number of patients / NC, number of patients / PD, number of patients / PR, number of patients: pharmacogenomic patients, study 039; for CR+PR rate / overall response rate: pharmacogenomic set of patients
# Excerpt: Patient samples and response criteria from patients participating in these studies, as well as the following additional studies described below were sought for use in pharmacogenomic analyses to identify markers associated with patient survival. The samples were derived from the trials as described in Table 3 and in the following paragraphs.
# For those patients who participated in the pharmacogenomic portion of the study, Table 6 summarizes the response rates and Table 7 summarizes the patients evaluated for survival. […]
# [2] = test system: relapsed multiple myeloma; assay: CREST phase 2 trial (024); type: in vivo, human
# Excerpt: (§1) Dexamethasone is a synthetic adrenocorticosteroid, CAS Registry No. 312-93-6, administered as tablets (DECADRON® Merck & Co., Inc.). 024: The CREST phase 2 trial (024) of either relapsed or refractory disease (subjects with first relapse, Jagannath et al. (2004) Br. J. Haematol. 127:165-172). […] 025: The SUMMIT phase 2 trial of patients with relapsed and refractory myeloma (subjects with second or greater relapse and refractory to their last prior therapy, Richardson P G, et al. (2003) N. Engl. J. Med. 348:2609-2617). […] Patients who received dexamethasone were treated for a maximum of 280 days by the following method: received up to four 5-week treatment cycles, followed by up to five 4-week treatment cycles. Within each 5-week treatment cycle, the patient received dexamethasone 40 mg/day PO, once daily on Days 1 to 4, 9 to 12, and 17 to 20 of a 35-day cycle. Within each 4-week treatment cycle, the patient received dexamethasone 40 mg/day PO once daily on Days 1 to 4 of a 28 day cycle. 040: Companion trial to 039 for patients who had more than 3 prior therapies. […] An additional 240 patients not from the −039 study, but who received at least 4 prior therapies also enrolled in this study.
# [3] = test system: nuclear factor-κB (NF-κB) activation; conditions: cited from earlier work
# myeloma cells = conditions: independent of their p53 status; cited from earlier work
# xenograft tumor models = conditions: variety of xenograft tumor models; cited from earlier work
# [4] = test system: relapsed or refractory multiple myeloma; assay: APEX phase 3 trial (039); type: in vivo, human; conditions: for Median duration of response / Median time to response / One-year survival / complete response / complete response plus near-complete response / complete response, number of patients: 039; for response rate (complete plus partial response (CR+PR)): 039, EBMT criteria; for CR + PR + MR, (%) / Complete Response, (%) / Minor Response, (%) / Near CR: IF+, (%) / No Change, (%) / Not Evaluable, (%) / Overall Response Rate (CR + PR), (%) / Partial Response, (%) / Progressive Disease, (%) / SWOG Remission, (%): best confirmed response, N = 627
# Excerpt: as §1
# The following section presents more detailed information on the −039 trial. During the study, disease response was assessed according to the European Group for Blood and Marrow Transplant (EBMT) criteria as presented in Table 4.
# Response and date of disease progression was determined by computer algorithm that integrated data from a central laboratory and case report forms from each clinical site, according to the Blade criteria (Table 4). […] See Richardson et al., supra.
# Disease progression was determined by Blade criteria as described in Table 4 and above. […] The date of progression was determined by computer algorithm. P-value from log-rank test adjusted by actual randomization factors. See Richardson et al., supra.
# [5] = test system: cells that over express B-cell lymphoma 2 (Bcl-2); conditions: cells that over express Bcl-2; cited from earlier work
# [6] = test system: relapsed and refractory myeloma; assay: SUMMIT phase 2 trial (025); type: in vivo, human; conditions: Study 025, bortezomib alone
# Excerpt: as §1
# [7] = difference in rates, bortezomib vs dexamethasone
# [8] = difference in response rates, bortezomib vs dexamethasone
structure (smiles),measurement,setting,value
"CC(C)C[C@H](NC(=O)[C@H](Cc1ccccc1)NC(=O)c1cnccn1)B(O)O [bortezomib, N (pyrazine)carbonyl-L-phenylalanine-L-leucine boronic acid]","CR, number of patients",[1],5
same,"IE, number of patients",[1],9
same,"MR, number of patients",[1],5
same,"NC, number of patients",[1],19
same,"PD, number of patients",[1],13
same,"PR, number of patients",[1],25
same,CR+PR rate,[1],32%
same,overall response rate,[1],42.3%
same,complete response (CR)+partial response (PR) rate,"[2]; Study 024, bortezomib 1.0 mg/m^2",30%
same,complete response (CR)+partial response (PR) rate,"[2]; Study 024, bortezomib 1.3 mg/m^2",38%
same,NF-κB activation,[3],inhibits
same,cytotoxicity to myeloma cells in culture,myeloma cells,directly cytotoxic
same,cytotoxic activity in xenograft tumor models,xenograft tumor models,cytotoxic activity
same,Median duration of response,[4],8 months
same,Median time to response,[4],43 days
same,One-year survival,[4],80%
same,complete response,[4],6%
same,complete response plus near-complete response,[4],13%
same,"complete response, number of patients",[4],20 patients
same,response rate (complete plus partial response (CR+PR)),[4],38%
same,"CR + PR + MR, (%)",[4],(46) %
same,"Complete Response, (%)",[4],(6) %
same,"Minor Response, (%)",[4],(8) %
same,"Near CR: IF+, (%)",[4],(7) %
same,"No Change, (%)",[4],(43) %
same,"Not Evaluable, (%)",[4],(3) %
same,"Overall Response Rate (CR + PR), (%)",[4],(38) %
same,"Partial Response, (%)",[4],(32) %
same,"Progressive Disease, (%)",[4],(7) %
same,"SWOG Remission, (%)",[4],(15) %
same,"No Change, Difference",[4]; [7],−0.04
same,"Not Evaluable, Difference",[4]; [7],−0.01
same,"Progressive Disease, Difference",[4]; [7],−0.06
same,"CR + PR + MR, Difference",[4]; [8],0.12
same,"Complete Response, Difference",[4]; [8],0.06
same,"Minor Response, Difference",[4]; [8],−0.09
same,"Near CR: IF+, Difference",[4]; [8],0.06
same,"Overall Response Rate (CR + PR), Difference",[4]; [8],0.20
same,"Partial Response, Difference",[4]; [8],0.15
same,"SWOG Remission, Difference",[4]; [8],0.09
same,decrease in risk of death,"[4]; first year after enrollment, bortezomib group vs dexamethasone",41%
same,apoptosis,[5],induces apoptosis
same,CR+PR rate,[6],27%
same,overall response rate (CR+PR+minimal response (MR)),[6],35%
same,"CR+PR, number of patients",[6]; of 193 patients,53 patients
same,"overall response (CR+PR+MR), number of patients",[6]; of 193 patients,67 patients
"C[C@@H]1C[C@H]2[C@@H]3CCC4=CC(=O)C=C[C@]4(C)[C@@]3(F)[C@@H](O)C[C@]2(C)[C@@]1(O)C(=O)CO [dexamethasone, Dexamethasone]","CR, number of patients",[1],1
same,"IE, number of patients",[1],6
same,"MR, number of patients",[1],11
same,"NC, number of patients",[1],16
same,"PD, number of patients",[1],22
same,"PR, number of patients",[1],13
same,CR+PR rate,[1],22.2%
same,overall response rate,[1],39.7%
same,Median duration of response,[4],5.6 months
same,Median time to response,[4],43 days
same,One-year survival,[4],66%
same,complete response,[4],< 1%
same,complete response plus near-complete response,[4],2%
same,"complete response, number of patients",[4],2 patients
same,response rate (complete plus partial response (CR+PR)),[4],18%
same,"CR + PR + MR, (%)",[4],(35) %
same,"Complete Response, (%)",[4],(<1) %
same,"Minor Response, (%)",[4],(17) %
same,"Near CR: IF+, (%)",[4],(<1) %
same,"No Change, (%)",[4],(48) %
same,"Not Evaluable, (%)",[4],(4) %
same,"Overall Response Rate (CR + PR), (%)",[4],(18) %
same,"Partial Response, (%)",[4],(17) %
same,"Progressive Disease, (%)",[4],(13) %
same,"SWOG Remission, (%)",[4],(5) %
